Laboratory results published in US20260209226A1 (EmpathBio, Inc., priority 2023, published 2026).
“And” between values parts separate entries of the source, which are not always exact repeats. Identical values can stand only once. Like-named read-outs stand apart in the source and are kept apart here.

What was measured:
Format in all cases: cell-based
[1] = target: T1, Human Dopamine Transporter (DAT) (Homo sapiens, UniProt Q01959); assay: Human Dopamine Transporter (DAT) Uptake Inhibition Assay ([3H]-Dihydroxyphenylethylamine uptake in HEK cells); details: HEK cells expressing recombinant DAT, individual experiments separated by commas
T1 construct: expressed in transfected cells; host or cells: HEK cells
T1 sequence (Q01959 whole entry): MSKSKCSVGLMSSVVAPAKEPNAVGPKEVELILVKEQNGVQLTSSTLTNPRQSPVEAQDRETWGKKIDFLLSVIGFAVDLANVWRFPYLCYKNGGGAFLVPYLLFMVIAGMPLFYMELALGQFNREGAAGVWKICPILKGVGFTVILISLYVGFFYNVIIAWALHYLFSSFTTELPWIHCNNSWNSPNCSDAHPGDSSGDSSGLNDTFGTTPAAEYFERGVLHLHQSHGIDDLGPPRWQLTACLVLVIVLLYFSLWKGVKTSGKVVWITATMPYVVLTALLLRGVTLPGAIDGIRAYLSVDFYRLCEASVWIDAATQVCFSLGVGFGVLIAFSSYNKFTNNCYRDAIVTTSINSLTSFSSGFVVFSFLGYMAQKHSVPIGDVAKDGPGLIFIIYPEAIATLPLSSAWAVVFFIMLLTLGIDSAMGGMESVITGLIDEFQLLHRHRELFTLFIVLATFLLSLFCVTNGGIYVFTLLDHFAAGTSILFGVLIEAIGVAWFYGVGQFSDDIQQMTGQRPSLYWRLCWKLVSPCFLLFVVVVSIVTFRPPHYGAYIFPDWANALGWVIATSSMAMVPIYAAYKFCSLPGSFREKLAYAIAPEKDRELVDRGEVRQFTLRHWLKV
Procedure: (§1) Compound activity is assessed using an in vitro assay. Briefly, HEK cells expressing recombinant dopamine transporter (DAT) are plated at 50,000 cells/well on a 96 well plate pre-coated with Matrigel one day prior to the experiment. Culture medium (DMEM/FBS) is removed and 30 μl of assay buffer (Tris-HCl 50 mM, EDTA 4 mM, BDA 0.1%) with the desired concentration of test compound is added. The plate is incubated at 37° C. for 15 minutes. Assay buffer (30 μl) containing the same concentration of compound diluted in [^3H]-Dihydroxyphenylethylamine uptake buffer (final concentration 20 nM) is added to each well and the plate is incubated at 37° C.; for 5 minutes. The reaction mixture is removed, and the cells are washed with 100 μl ice-cold assay buffer twice. Lysis buffer (50 μl) is added to the cells followed by a 5 minute incubation with gentle shaking at room temperature. The lysate is transferred to a 96 well isoplate. Optiphase supermix (100 μl) is added to each well with complete mixing. Radioactivity is counted with Microbeta Counter and reported as CPM. Nomifensine is used as a control to measure non-specific uptake and for data normalization. Percent inhibition of [^3H]-Dihydroxyphenylethylamine uptake calculations: 100×(1−(CPMtest sample−CPMnon-specific uptake)/(CPMMAX−CPMMIN)). Test compounds were screened at 10 concentrations at half-log dilutions from a top concentration of 100 μM. IC50s were determined using the log(inhibitor) vs. normalized response—Variable slope model in GraphPad Prism 10.1.0 and are summarized in Table 3.

[2] = target: T2, Human Norepinephrine Transporter (NET) (Homo sapiens, UniProt P23975); assay: Human Norepinephrine Transporter (NET) Uptake Inhibition Assay ([3H]-Norepinephrine uptake in HEK cells); details: HEK cells expressing recombinant NET, individual experiments separated by commas
T2 construct: expressed in transfected cells; host or cells: HEK cells
T2 sequence (P23975 whole entry): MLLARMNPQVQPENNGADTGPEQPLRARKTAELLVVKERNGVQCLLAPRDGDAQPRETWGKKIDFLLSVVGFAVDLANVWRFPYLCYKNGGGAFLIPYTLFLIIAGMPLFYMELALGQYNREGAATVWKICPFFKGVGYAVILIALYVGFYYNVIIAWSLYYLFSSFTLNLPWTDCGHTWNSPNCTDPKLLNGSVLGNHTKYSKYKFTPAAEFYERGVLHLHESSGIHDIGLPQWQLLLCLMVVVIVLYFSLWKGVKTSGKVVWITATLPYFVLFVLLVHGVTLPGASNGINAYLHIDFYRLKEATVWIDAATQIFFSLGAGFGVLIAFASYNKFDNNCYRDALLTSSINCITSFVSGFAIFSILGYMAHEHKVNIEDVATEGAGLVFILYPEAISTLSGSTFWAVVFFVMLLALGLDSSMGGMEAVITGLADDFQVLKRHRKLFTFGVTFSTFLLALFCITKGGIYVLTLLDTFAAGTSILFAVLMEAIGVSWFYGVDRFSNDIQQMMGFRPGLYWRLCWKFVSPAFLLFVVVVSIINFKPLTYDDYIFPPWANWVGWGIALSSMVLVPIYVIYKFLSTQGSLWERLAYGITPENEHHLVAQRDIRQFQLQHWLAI
Procedure: as §1, with “Norepinephrine” for “dopamine”, “(NET)” for “(DAT)”, “[^3H]-Norepinephrine” for “[^3H]-Dihydroxyphenylethylamine”, “C.” for “C.;”, “Desiparmine” for “Nomifensine”, “100×(1−CPMtest sample−CPMnon_specific” for “100×(1−(CPMtest sample−CPMnon-specific”

[3] = target: T3, Human Serotonin Transporter (SERT) (Homo sapiens, UniProt P31645); assay: Human Serotonin Transporter (SERT) Uptake Inhibition Assay ([3H]-Serotonin uptake in HEK cells); details: HEK cells expressing recombinant SERT, individual experiments separated by commas; for SERT UPTAKE INHIBITION (%) @1 uM: 1 uM test compound; for SERT UPTAKE INHIBITION (%) @100 uM: 100 uM test compound; for inhibition at 10 µM: HEK293, 10 uM test compound; for inhibition at 100 µM: HEK293, 100 uM test compound; for inhibition at 1 µM: HEK293, 1 uM test compound
T3 construct: expressed in transfected cells; host or cells: HEK cells
T3 sequence (P31645 whole entry): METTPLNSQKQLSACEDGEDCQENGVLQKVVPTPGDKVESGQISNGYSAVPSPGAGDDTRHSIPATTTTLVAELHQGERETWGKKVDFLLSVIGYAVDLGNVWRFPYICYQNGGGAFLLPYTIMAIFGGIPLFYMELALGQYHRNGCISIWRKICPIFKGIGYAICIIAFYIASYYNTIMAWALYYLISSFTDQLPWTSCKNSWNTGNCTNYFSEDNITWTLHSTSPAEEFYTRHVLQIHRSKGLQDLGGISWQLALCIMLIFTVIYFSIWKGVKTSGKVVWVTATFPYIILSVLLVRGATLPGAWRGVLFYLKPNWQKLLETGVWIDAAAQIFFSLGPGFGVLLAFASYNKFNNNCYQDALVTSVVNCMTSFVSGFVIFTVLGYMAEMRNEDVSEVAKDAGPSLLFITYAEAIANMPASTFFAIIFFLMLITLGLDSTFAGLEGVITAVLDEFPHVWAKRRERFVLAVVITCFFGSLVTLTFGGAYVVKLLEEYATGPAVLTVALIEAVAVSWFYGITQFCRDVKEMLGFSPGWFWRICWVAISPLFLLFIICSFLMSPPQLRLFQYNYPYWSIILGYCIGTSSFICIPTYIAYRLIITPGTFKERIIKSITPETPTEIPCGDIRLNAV
Procedure: Compound activity is assessed using an in vitro assay. Briefly, HEK cells expressing recombinant serotonin transporter (SERT) are plated at 50,000 cells/well on a 96 well plate pre-coated with Matrigel one day prior to the experiment. Culture medium (DMEM/FBS) is removed and 30 μl of assay buffer (Tris-HCl 50 mM, EDTA 4 mM, BDA 0.1%) with the desired concentration of test compound is added. The plate is incubated at 37° C. for 15 minutes. Assay buffer (30 μl) containing the same concentration of compound diluted in [^3H]-Serotonin uptake buffer (final concentration 10 nM) is added to each well and the plate is incubated at 37° C. for 5 minutes. The reaction mixture is removed, and the cells are washed with 100 μl ice-cold assay buffer twice. Lysis buffer (50 μl) is added to the cells followed by a 5 minute incubation with gentle shaking at room temperature. The lysate is transferred to a 96 well isoplate. Optiphase supermix (100 μl) is added to each well with complete mixing. Radioactivity is counted with Microbeta Counter and reported as counts per minute (CPM). Fluoxetine is used as a control to measure non-specific uptake and for data normalization. Percent inhibition of [^3H]-Serotonin uptake calculations: 100×(1−(CPMtest sample−CPMnon_specific uptake)/(CPMMAX−CPMMIN)) are summarized in Table 2. Subsequent experiments using the same assay were performed with select compounds with a greater range of concentrations (10 half-log dilutions from a top concentration of 100 μM), allowing for the determination of IC50s. IC50s were determined using the log(inhibitor) vs. normalized response—Variable slope model in GraphPad Prism 10.1.0 and are summarized in Table 3.

[4] = 10 half-log dilutions from 100 μM, read-out: DAT Uptake Inhibition IC50
[5] = 10 half-log dilutions from 100 μM, read-out: NET Uptake Inhibition IC50
[6] = 10 half-log dilutions from 100 μM, read-out: SERT Uptake Inhibition IC50

Structure (SMILES)	IC50 [1, 4]	SERT UPTAKE INHIBITION (%) @100 uM [3]	inhibition at 10 µM [3]	inhibition at 100 µM [3]	IC50 [2, 5]	IC50 [3, 6]	further results
CNC(C)Cc1ccc2c(c1)OCO2 (stereo not drawn) [18 MDMA, 3,4-methylenedioxymethamphetamine, reference compound]	5.29 µM	88.7% and 98.0% and 86.2%	53.3%	85.1%			IC50 ([1]; DAT Uptake Inhibition IC50, 10 half-log dilutions from 100 μM): 3.5 µM and 5.48 µM and 7.48 µM and 10.3 µM and 13.5 µM; IC50 ([2]; NET Uptake Inhibition IC50, 10 half-log dilutions from 100 μM): 1.4 µM and 2.37 µM and 0.93 µM and 1.34 µM and 2.27 µM and 2.89 µM; SERT UPTAKE INHIBITION (%) @1 uM [3]: 25.0% and −1.67%; SERT UPTAKE INHIBITION (%) @10 uM ([3]; 10 uM test compound, 10 µM): 70.1%; IC50 ([3]; SERT Uptake Inhibition IC50, 10 half-log dilutions from 100 μM): 5.25 µM and 5.08 µM and 3.19 µM and 1.48 µM and 2.07 µM and 2.21 µM
CNC(C)Cc1ccn2ccnc2c1 (stereo not drawn) [Compound 1]				91.6%			inhibition at 1 µM [3]: 3.6%
CNC(C)Cc1ccc2ncsc2c1 (stereo not drawn) [Compound 2]	21.8 µM	93.94% and 91.08%	67.9%	88.8%	4.7 µM	10.3 µM	SERT UPTAKE INHIBITION (%) @1 uM [3]: 43.44% and −5.16%
CNC(C)Cc1ccn2ncnc2c1 (stereo not drawn) [Compound 3]		69.13%		78.4%			SERT UPTAKE INHIBITION (%) @1 uM [3]: −1.21% and −1.77%
CNC(C)Cc1ccc2scnc2c1 (stereo not drawn) [Compound 4]	35.8 µM	87.43%	61.8%	91.5%	8.3 µM	11.3 µM	inhibition at 1 µM [3]: 20.2%
CC(N)Cc1ccn2ccnc2c1 (stereo not drawn) [Compound 5]				90.2%			inhibition at 1 µM [3]: -0.48%
CC(N)Cc1ccc2ncsc2c1 (stereo not drawn) [Compound 6]	> 100 µM	96.89%		94.6%	1.1 µM	7.5 µM	SERT UPTAKE INHIBITION (%) @1 uM [3]: 51.1% and 4.94%
CC(N)Cc1ccn2ncnc2c1 (stereo not drawn) [Compound 7]		84.23% and 59.35%					SERT UPTAKE INHIBITION (%) @1 uM [3]: 11.89% and −1.06%
CC(N)Cc1ccc2scnc2c1 (stereo not drawn) [Compound 8]	20.7 µM	90.93%	68.7%	82.4%	> 100 µM	11.5 µM	inhibition at 1 µM [3]: 24%
CC(N)Cc1ccc2ncoc2c1 (stereo not drawn) [Compound 9, 1-(benzo[d]oxazol-6-yl)propan-2-amine]			-2.39%	87.9%			
CNC(C)Cc1ccc2conc2c1 (stereo not drawn) [Compound 10, [1-(2,1-benzoxazol-6-yl)propan-2-yl](methyl)amine]			48.3%	96.8%			
CC(N)Cc1ccc2conc2c1 (stereo not drawn) [Compound 11, 1-(2,1-benzoxazol-6-yl) propan-2-amine]			45.5%	96.6%			
CNC(C)Cc1ccc2ncnn2c1 (stereo not drawn) [Compound 12, methyl(1-{[1,2,4]triazolo[1,5-a]pyridin-6-yl}propan-2-yl)amine]			0.25%	83.2%			
CC(N)Cc1ccc2ncnn2c1 (stereo not drawn) [Compound 13]			1.34%	73.1%			
C[C@H](N)Cc1ccc2ncsc2c1 [Compound 14, (S)-1-(benzo[d]thiazol-6-yl)propan-2-amine]	> 100 µM		46.6%	98.9%	5.8 µM	6.6 µM	
C[C@@H](N)Cc1ccc2ncsc2c1 [Compound 15, (R)-1-(benzo[d]thiazol-6-yl)propan-2-amine]			38%	97.5%			
CN[C@@H](C)Cc1ccc2ncsc2c1 [Compound 16, (S)-1-(benzo[d]thiazol-6-yl)-N-methylpropan-2-amine]	> 100 µM		57.7%	99.1%	4.2 µM	5.1 µM	
CN[C@H](C)Cc1ccc2ncsc2c1 [Compound 17, (R)-1-(benzo[d]thiazol-6-yl)-N-methylpropan-2-amine]			32.5%	95.7%			
